Experimental findings from US20240109917A1 (ACTELION PHARMACEUTICALS LTD, priority 2020, published 2024) are described below.

A word on the IC50: it is the midpoint of a concentration-inhibition curve.

The structures appear in SMILES notation.

Assay [1] addresses Tb-labeled inactive PDGFRβ (Homo sapiens (Human), UniProt P09619). The assay can be described thus: PDGFRβ LanthaScreen Assay. It is filed as binding. The note with it: read-out: PDGFR Lantha IC50. (TR-FRET usually uses a lanthanide donor and a delayed reading to cut background.)
For assay [2], the target named is His6-TEV-PDGFRβ (557-1016) (Homo sapiens (Human), UniProt P09619). The assay can be described thus: PDGFRβ HTRF Assay. It is filed as biochemical. The note with it: read-out: PDGFR HTRF IC50. A digest of the protocol: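 Human PDGFRβ (557-1016) pre-incubated with compound for 30 min at RT in pH 7.5 HEPES/MgCl2/EGTA/Brij-35/DTT buffer. Reaction started with ATP and TK-biotin peptide, run 3 h at RT, then quenched with EDTA-containing Eu-cryptate antibody/streptavidin-XL665. HTRF 665/620 nm ratio read after 60 min; percent inhibition relative to DMSO and 10 μM imatinib controls.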

Another assay addresses PDGFRβ (Rattus norvegicus (Rat), UniProt Q05030). The assay can be described thus: PDGFRβ Cellular Assay (PDGFRb P-Y751 HTRF in A10 cells stimulated with PDGF-BB). The format is cell-based. The note with it: read-out: PDGFR Cellular IC50. A digest of the protocol: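 Rat A10 cells, plated overnight, were treated with compound for 3 hours, then stimulated with PDGF-BB (working stock 100 ng/mL in 10% FBS medium). After lysis, PDGFRβ P-Y751 was detected by HTRF.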

Chain of PDGFRβ (Q05030 32-1097): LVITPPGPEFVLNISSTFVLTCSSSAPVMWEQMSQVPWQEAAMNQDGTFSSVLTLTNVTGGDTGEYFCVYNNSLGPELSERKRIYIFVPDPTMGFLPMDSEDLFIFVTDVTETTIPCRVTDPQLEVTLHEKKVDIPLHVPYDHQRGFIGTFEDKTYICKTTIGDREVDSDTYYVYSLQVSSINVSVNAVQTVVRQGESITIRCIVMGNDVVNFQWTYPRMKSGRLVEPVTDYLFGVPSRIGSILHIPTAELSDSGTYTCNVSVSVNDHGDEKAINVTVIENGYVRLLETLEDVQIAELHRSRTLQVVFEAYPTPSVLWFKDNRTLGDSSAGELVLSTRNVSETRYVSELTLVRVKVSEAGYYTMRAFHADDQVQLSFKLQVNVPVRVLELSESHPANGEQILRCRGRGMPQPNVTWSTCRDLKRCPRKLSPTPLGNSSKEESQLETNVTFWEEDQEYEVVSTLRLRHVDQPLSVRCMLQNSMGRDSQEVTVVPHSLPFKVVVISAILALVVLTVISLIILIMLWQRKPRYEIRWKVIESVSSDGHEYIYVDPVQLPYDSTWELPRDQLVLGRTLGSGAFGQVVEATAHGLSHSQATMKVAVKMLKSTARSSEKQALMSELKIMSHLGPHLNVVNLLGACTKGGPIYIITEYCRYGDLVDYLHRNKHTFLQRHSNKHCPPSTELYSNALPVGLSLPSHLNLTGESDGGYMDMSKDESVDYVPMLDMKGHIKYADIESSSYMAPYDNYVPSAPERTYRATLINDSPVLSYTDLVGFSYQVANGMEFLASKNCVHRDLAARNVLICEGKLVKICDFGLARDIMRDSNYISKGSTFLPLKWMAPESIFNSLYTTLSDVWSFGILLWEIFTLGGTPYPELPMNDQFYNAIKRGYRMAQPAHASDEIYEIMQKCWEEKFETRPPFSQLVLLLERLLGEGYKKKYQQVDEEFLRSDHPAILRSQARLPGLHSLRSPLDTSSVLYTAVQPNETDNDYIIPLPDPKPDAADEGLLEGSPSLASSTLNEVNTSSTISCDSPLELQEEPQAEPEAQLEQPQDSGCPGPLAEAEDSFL
Chain of His6-TEV-PDGFRβ (557-1016) (P09619 557-1016): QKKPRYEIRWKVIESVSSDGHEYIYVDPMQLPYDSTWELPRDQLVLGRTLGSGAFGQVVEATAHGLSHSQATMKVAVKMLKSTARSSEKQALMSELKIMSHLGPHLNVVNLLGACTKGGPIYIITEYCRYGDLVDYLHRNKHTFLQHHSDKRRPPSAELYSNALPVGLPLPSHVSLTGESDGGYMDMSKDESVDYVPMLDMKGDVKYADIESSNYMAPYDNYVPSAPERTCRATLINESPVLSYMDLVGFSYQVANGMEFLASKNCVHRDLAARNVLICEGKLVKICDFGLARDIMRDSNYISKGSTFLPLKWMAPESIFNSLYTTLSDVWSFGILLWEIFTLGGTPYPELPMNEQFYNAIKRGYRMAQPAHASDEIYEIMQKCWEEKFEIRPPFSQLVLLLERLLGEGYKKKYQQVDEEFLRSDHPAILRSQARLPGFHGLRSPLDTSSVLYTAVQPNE
Chain of Tb-labeled inactive PDGFRβ (P09619 33-1106): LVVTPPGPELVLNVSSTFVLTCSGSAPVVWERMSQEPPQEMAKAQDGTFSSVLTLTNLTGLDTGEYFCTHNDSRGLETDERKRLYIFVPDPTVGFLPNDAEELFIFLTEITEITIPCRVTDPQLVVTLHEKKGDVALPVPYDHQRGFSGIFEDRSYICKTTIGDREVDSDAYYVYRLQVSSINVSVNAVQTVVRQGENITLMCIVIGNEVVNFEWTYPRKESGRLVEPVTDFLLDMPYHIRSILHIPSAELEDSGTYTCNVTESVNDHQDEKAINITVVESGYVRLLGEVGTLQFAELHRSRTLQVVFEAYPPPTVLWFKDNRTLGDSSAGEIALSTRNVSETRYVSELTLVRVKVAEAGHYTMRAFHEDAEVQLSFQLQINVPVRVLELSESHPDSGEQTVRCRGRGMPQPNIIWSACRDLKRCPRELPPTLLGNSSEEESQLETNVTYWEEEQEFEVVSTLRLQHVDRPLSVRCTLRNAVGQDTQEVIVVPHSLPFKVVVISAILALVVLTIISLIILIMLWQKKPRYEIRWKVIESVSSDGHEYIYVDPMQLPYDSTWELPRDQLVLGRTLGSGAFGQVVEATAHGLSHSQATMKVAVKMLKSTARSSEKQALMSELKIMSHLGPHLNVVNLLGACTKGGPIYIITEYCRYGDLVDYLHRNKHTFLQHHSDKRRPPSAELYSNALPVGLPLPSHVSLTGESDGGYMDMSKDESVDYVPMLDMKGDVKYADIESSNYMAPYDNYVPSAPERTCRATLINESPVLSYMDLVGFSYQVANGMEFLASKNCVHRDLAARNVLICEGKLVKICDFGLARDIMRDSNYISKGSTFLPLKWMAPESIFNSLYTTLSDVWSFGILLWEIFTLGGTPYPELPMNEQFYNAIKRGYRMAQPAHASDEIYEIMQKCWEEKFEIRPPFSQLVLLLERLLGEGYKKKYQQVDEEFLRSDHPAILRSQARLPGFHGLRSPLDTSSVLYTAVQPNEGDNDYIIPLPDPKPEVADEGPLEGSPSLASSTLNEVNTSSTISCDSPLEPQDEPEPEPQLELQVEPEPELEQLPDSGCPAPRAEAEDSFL

For `Cc1ncc(NC(=O)CN2CC(C)(C)C2)cc1NC(=O)c1cnn2cc(-c3cnn4c3COCC4)sc12` [Example 476, 2-(6,7-dihydro-4H-pyrazolo[5,1-c][1,4]oxazin-3-yl)-N-(5-(2-(3,3-dimethylazetidin-1-yl)acetamido)-2-methylpyridin-3-yl)pyrazolo[5,1-b]thiazole-7-carboxamide], the IC50 in assay [1] came to 1.7 nM; in assay [2], 0.2 nM; on PDGFRβ, 4.9 nM.
Take `Cc1ncc(C(=O)NCCN2CC3CCC2CC3)cc1NC(=O)c1cnn2cc(-c3cnn4c3OCCC4)sc12` [Example 477, N-(5-((2-(2-azabicyclo[2.2.2]octan-2-yl)ethyl)carbamoyl)-2-methylpyridin-3-yl)-2-(6,7-dihydro-5H-pyrazolo[5,1-b][1,3]oxazin-3-yl)pyrazolo[5,1-b]thiazole-7-carboxamide]: the IC50 in assay [1] was 2.3 nM; in assay [2], 0.3 nM; on PDGFRβ it was 45.5 nM.
Regarding `Cc1ncc(C(=O)NCCN2CCCC23CCC3)cc1NC(=O)c1cnn2cc(-c3cnn4c3OCCC4)sc12` [Example 478, N-(5-((2-(5-azaspiro[3.4]octan-5-yl)ethyl)carbamoyl)-2-methylpyridin-3-yl)-2-(6,7-dihydro-5H-pyrazolo[5,1-b][1,3]oxazin-3-yl)pyrazolo[5,1-b]thiazole-7-carboxamide], the IC50 in assay [1] is 3 nM; in assay [2], 0.3 nM; at PDGFRβ, 4.6 nM.
For `Cc1ncc(C(=O)NCCN2CC(C)(C)C2)cc1NC(=O)c1cnn2cc(-c3cnn4c3OCCC4)sc12` [Example 479, 2-(6,7-dihydro-5H-pyrazolo[5,1-b][1,3]oxazin-3-yl)-N-(5-((2-(3,3-dimethylazetidin-1-yl)ethyl)carbamoyl)-2-methylpyridin-3-yl)pyrazolo[5,1-b]thiazole-7-carboxamide], the figures for the IC50 (in assay [1]; in assay [2]; on PDGFRβ) were 2 nM, 0.3 nM and 97.1 nM, respectively.
For the compound `Cc1ncc(C(=O)NCCN2CC3CCC2CC3)cc1NC(=O)c1cnn2cc(-c3cnn4c3CCC4)sc12` [Example 480, N-(5-((2-(2-azabicyclo[2.2.2]octan-2-yl)ethyl)carbamoyl)-2-methylpyridin-3-yl)-2-(5,6-dihydro-4H-pyrrolo[1,2-b]pyrazol-3-yl)pyrazolo[5,1-b]thiazole-7-carboxamide], the IC50 in assay [1] came out at 2.5 nM; in assay [2], 0.3 nM; at PDGFRβ it was 19.5 nM.
Consider `Cc1ncc(C(=O)NCCN2CCCC2(C)C)cc1NC(=O)c1cnn2cc(-c3cnn4c3CCC4)sc12` [Example 481, 2-(5,6-dihydro-4H-pyrrolo[1,2-b]pyrazol-3-yl)-N-(5-((2-(2,2-dimethylpyrrolidin-1-yl)ethyl)carbamoyl)-2-methylpyridin-3-yl)pyrazolo[5,1-b]thiazole-7-carboxamide], for which the IC50 was found to be 2 nM in assay [1], 0.3 nM in assay [2] and 3.9 nM on PDGFRβ.
The like results for `Cc1ncc(C(=O)NCCN2CC(C)(C)C2)cc1NC(=O)c1cnn2cc(-c3cnn4c3CCC4)sc12` [Example 482, 2-(5,6-dihydro-4H-pyrrolo[1,2-b]pyrazol-3-yl)-N-(5-((2-(3,3-dimethylazetidin-1-yl)ethyl)carbamoyl)-2-methylpyridin-3-yl)pyrazolo[5,1-b]thiazole-7-carboxamide] were, in that order, 1.6 nM, 0.2 nM and 28.6 nM.
